Measured values: publication PMC6000670, “Dihydropyridines Allosterically Modulate Hsp90 Providing a Novel Mechanism for Heat Shock Protein Co-induction and Neuroprotection” (Frontiers in Molecular Biosciences, 2018)
Like-named read-outs stand apart in the source and are kept apart here.

What was measured:
yeast Hsp90 [1] = molecular target: T1, yeast Hsp90 (Saccharomyces cerevisiae, UniProt P02829); experiment: Hsp90 ATPase assay
yeast Hsp90 [2] = molecular target: T1, yeast Hsp90; set-up: pRSETA was used to express yeast full–length Hsp90; made in house; method as in Prodromou et al., 1999; conditions: Sti1 to yeast Hsp90 without LA1011; ref Prodromou et al., 1999; cited from earlier work
[3] = test system: APPxPS1 transgenic mouse model of AD; set-up: method as in Kasza et al., 2016; conditions: ref Kasza et al., 2016, cited from earlier work
[4] = molecular target: human Hsp90α N-terminal domain (Hsp90^9−236) (Homo sapiens, UniProt P07900); experiment: ITC binding to human Hsp90α N-terminal domain; conditions: isolated N-terminal domain of human Hsp90α
human Hsp90α = human Hsp90α (Homo sapiens, UniProt P07900); experiment: ITC binding to human full-length Hsp90α
human Hsp90β = human Hsp90β (Homo sapiens, UniProt P08238); experiment: ITC binding to human full-length Hsp90β
Chain of human Hsp90β (P08238 whole entry): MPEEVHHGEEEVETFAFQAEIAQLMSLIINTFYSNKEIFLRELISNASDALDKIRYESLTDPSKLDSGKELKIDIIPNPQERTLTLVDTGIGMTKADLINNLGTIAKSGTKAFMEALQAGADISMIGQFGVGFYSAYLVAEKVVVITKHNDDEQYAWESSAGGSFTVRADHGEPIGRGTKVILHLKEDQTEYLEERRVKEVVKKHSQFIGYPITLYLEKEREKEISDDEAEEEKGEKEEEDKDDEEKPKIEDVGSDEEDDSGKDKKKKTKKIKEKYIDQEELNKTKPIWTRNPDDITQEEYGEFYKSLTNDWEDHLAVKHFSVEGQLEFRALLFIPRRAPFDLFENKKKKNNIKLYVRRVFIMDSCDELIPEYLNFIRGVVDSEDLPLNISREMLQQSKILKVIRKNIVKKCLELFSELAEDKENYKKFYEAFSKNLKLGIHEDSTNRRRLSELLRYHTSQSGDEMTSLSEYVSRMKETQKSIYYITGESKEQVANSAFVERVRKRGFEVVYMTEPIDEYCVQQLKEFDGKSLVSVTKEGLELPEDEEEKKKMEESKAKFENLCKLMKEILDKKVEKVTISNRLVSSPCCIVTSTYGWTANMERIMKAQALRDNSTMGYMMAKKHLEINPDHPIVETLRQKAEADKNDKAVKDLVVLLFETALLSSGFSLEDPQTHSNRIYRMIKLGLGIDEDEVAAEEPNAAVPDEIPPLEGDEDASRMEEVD

[5] = molecular target: yeast Hsp90–AMPPNP complex (Saccharomyces cerevisiae, UniProt P02829); experiment: ITC binding to yeast Hsp90-AMPPNP complex
Chain of yeast Hsp90–AMPPNP complex (P02829 whole entry, one chain of several): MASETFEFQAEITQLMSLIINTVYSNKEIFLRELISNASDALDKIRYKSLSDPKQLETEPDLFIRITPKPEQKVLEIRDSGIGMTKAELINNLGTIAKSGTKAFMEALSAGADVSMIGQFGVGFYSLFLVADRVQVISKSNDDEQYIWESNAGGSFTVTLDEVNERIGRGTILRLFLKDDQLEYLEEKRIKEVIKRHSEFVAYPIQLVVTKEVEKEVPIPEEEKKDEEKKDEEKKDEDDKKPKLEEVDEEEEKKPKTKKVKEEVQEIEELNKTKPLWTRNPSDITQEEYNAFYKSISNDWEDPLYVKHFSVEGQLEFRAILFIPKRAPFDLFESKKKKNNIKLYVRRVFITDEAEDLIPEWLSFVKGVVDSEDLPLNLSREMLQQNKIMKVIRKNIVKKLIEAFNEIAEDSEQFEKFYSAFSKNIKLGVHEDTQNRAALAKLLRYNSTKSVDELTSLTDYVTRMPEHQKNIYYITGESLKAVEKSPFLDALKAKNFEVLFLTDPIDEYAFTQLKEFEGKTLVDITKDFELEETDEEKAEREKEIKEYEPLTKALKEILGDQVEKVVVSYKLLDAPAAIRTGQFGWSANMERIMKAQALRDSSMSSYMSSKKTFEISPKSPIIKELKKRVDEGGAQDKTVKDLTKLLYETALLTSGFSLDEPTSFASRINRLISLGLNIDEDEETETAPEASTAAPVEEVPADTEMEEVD

[6] = molecular target: Hsp90-AMPPNP-Sba1 complex (Saccharomyces cerevisiae, UniProt P02829); experiment: ITC binding to Hsp90-AMPPNP-Sba1 complex
human Hsp72 = human Hsp72 (Homo sapiens, UniProt P0DMV8); experiment: ITC binding to human Hsp72; conditions: 1 mM LA1011 into 60 μM human Hsp72
yeast Hsp90^273−709 = yeast Hsp90^273−709 (Saccharomyces cerevisiae, UniProt P02829); experiment: ITC binding to yeast Hsp90 273-709 (middle and C-terminal domain); conditions: for ΔH / ΔS: ITC, Yeast 273–709
Chain of yeast Hsp90^273−709 (P02829 273-709): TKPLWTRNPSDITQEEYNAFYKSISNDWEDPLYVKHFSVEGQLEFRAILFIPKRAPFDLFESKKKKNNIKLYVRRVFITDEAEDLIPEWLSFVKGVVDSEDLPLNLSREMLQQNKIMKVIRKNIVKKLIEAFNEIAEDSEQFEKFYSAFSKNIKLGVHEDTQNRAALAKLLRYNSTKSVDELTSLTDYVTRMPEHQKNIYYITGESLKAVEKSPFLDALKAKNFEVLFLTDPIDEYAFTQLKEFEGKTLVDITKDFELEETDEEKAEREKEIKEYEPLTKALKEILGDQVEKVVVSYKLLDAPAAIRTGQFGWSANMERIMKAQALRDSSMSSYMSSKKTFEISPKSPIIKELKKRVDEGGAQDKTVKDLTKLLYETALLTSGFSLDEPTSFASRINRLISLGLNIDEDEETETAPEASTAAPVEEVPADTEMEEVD

yeast Hsp90 [7] = molecular target: T1, yeast Hsp90; experiment: ITC binding to yeast full-length Hsp90
Hsp90 = experiment: Refolding of denatured luciferase in rabbit reticulocyte lysate; format: biochemical
Description: QuantiLum Luciferase (Promega E170A) was diluted to 100 ug/mL in 25 mM Tricine pH 7.8, containing 10 mM MgCl2, 1 mM DTT, 0.1 mM EDTA, 10% glycerol, and 100 mg/mL BSA (sigma 05470) and denatured at 44°C for 30 min. […] Refolding of luciferase was determined by removing 2 μL aliquots of the rabbit reticulocyte mix at 0, 15, 30 45, 60, 90, and 120 min and adding this to 48 μL of Briglt-Glo^TM reconstituted reagent (Promega, E2610), which contains buffer, substrate and ATP required for luciferase activity, as instructed by the manufacturer. Luminescence was measured in a CLARIOstar^R microplate reader using half area 96 well flat bottom plates.

yeast Hsp90 [8] = molecular target: T1, yeast Hsp90; experiment: Citrate synthase aggregation assay
[9] = molecular target: T2, yeast Hsp90 N-terminal domain (Hsp90^1−220) (Saccharomyces cerevisiae, UniProt P02829); experiment: ITC binding to yeast Hsp90 N-terminal domain; conditions: isolated N-terminal domain of yeast Hsp90
T2 construct: Hsp90^1−220 (N-terminal domain); made in house
T2 sequence (P02829 1-220): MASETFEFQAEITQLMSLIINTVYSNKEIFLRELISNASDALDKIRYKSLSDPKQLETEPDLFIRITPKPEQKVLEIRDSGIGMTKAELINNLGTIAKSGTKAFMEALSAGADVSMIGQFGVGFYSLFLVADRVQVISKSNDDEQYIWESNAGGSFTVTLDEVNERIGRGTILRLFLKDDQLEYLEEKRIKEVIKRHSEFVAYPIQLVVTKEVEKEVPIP

yeast Hsp90^546−709 = yeast Hsp90^546−709 (Saccharomyces cerevisiae, UniProt P02829); experiment: ITC binding to yeast Hsp90 546-709 (C-terminal domain)
Chain of yeast Hsp90^546−709 (P02829 546-709): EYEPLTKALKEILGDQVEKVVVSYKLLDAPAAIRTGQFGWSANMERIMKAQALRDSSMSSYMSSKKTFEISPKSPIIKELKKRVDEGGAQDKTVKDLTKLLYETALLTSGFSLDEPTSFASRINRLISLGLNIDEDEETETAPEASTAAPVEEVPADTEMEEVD

yeast Hsp90-P661R = yeast Hsp90-P661R (Saccharomyces cerevisiae, UniProt P02829, P661R); experiment: ITC binding to yeast Hsp90 mutant P661R
Chain of yeast Hsp90-P661R (P02829 whole entry, looked up, the tested form may be a part, stated change not applied): as the sequence (P02829 whole entry, one chain of several) above

Hsp90^1−560 = Hsp90^1−560 (Saccharomyces cerevisiae, UniProt P02829); experiment: ITC binding to yeast Hsp90 1-560 (N and middle domain); conditions: Hsp90 1−560, N- and middle-domain of yeast Hsp90
Chain of Hsp90^1−560 (P02829 1-560): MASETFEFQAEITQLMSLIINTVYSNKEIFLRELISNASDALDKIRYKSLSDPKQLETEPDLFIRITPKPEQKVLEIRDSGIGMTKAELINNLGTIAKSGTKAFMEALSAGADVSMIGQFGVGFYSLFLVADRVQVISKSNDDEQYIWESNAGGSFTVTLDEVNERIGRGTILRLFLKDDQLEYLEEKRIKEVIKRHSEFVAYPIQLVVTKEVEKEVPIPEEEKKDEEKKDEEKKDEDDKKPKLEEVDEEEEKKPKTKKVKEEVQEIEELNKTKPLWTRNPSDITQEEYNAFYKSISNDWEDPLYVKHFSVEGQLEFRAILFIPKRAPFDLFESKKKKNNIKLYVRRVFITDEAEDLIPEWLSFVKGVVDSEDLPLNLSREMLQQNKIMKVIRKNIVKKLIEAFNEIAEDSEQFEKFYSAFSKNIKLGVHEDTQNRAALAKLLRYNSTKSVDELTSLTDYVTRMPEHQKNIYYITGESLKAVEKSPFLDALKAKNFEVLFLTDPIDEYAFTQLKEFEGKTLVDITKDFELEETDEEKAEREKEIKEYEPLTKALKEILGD

[10] = test system: SH-SY5Y human neuroblastoma cell line; set-up: method as in Kasza et al., 2016; conditions: ref Kasza et al., 2016; cited from earlier work
yeast Hsp90-ADP complex = yeast Hsp90-ADP complex (Saccharomyces cerevisiae, UniProt P02829); experiment: ITC binding to yeast Hsp90-ADP complex
Chain of yeast Hsp90-ADP complex (P02829 whole entry, one chain of several): as the sequence (P02829 whole entry, one chain of several) above

[11] = 2 μM yeast Hsp90, non-inhibited turnover 1.2 per min

T1 sequence (P02829 whole entry): as the sequence (P02829 whole entry, one chain of several) above

In the case of `COC1=C2C[C@@H](C)C[C@H](OC)[C@H](O)[C@@H](C)/C=C(\C)[C@H](OC(N)=O)[C@@H](OC)/C=C\C=C(/C)C(=O)NC(=CC1=O)C2=O` [geldanamycin, reference compound], the “effect on ATPase activity of Hsp90” value (yeast Hsp90 [1]; [11]) is reported as “inhibition of Hsp90 ATPase activity”.

In the case of Sti1: yeast co-chaperone of Hsp90, the Kd (yeast Hsp90 [2]) is given as 0.33 ± 0.03 µM.

For `COC(=O)C1=C(CCN(C)C)N(C)C(CCN(C)C)=C(C(=O)OC)C1c1ccc(C(F)(F)F)cc1` [LA1011], the “effect on ATPase activity of Hsp90” value (yeast Hsp90 [1]; [11]) was “activated the ATPase activity”, the “effect on ATPase activity of Hsp90” value (yeast Hsp90 [1]; 10 μM LA1011) was “marginal effects” and the “stimulation of the ATPase” value (yeast Hsp90 [1]; 240 μM LA1011) was 2 fold. For the same molecule, the neuroprotective effect ([3]; APPxPS1 transgenic mouse model of AD) was “could protect neurons in the hippocampus, could decrease Tau-accumulation and was able to preserve dendritic spines”, the “levels that had an effect in mouse models” value ([3]; mouse models) was 5 to 10 µM and the binding [4] was “failed to bind”. It also gave a Kd (human Hsp90α) of 3.8 ± 0.7 µM, a ΔH (human Hsp90α; ITC, Hsp90α) of -0.792 ± 0.0807 kcal/mol and a ΔS (human Hsp90α; ITC, Hsp90α) of 22.2 cal/mol/Deg. The “N (stoichiometry)” value (human Hsp90α; ITC, human Hsp90α) was 0.35, the Kd (human Hsp90β) was 9.7 ± 0.7 µM and the ΔH (human Hsp90β; ITC, Hsp90β) was -0.6549 ± 0.0435 kcal/mol. For the same molecule, the ΔS (human Hsp90β; ITC, Hsp90β) was 20.8 cal/mol/Deg, the “N (stoichiometry)” value (human Hsp90β; ITC, human Hsp90β) was 0.27 and the Kd [5] was 66.2 ± 21.4 µM. For the same molecule, the “LA1011 required to achieve 88% occupancy” value ([5]; in the presence of ATP) was 0.5 mM, the Kd [6] was 23.1 ± 1.9 µM and the binding (human Hsp72) was “did not interact”. For the same molecule, the Kd (yeast Hsp90^273−709) was 9.7 ± 0.7 µM, the ΔH (yeast Hsp90^273−709) was -5.11 ± 0.187 kcal/mol and the ΔS (yeast Hsp90^273−709) was 6.07 cal/mol/Deg. The Kd (yeast Hsp90 [7]) was 13.5 ± 0.9 µM, the “N (stoichiometry)” value (yeast Hsp90 [7]; ITC, Yeast Hsp90) was 0.53 and the ΔH (yeast Hsp90 [7]; ITC, Yeast Hsp90) was -4.863 ± 0.194 kcal/mol. The ΔS (yeast Hsp90 [7]; ITC, Yeast Hsp90) was 6.24 cal/mol/Deg, the “LA1011 required to achieve 88% occupancy” value (yeast Hsp90 [7]; in the absence of ATP) was 100 µM and the “inhibition of luciferase refolding” value (Hsp90; 1 mM LA1011, rabbit reticulocyte lysate) was “around 50%”. For the same molecule, the refolding of luciferase (Hsp90; 5 mM LA1011, rabbit reticulocyte lysate) was “completely prevented refolding of luciferase”, the “disruption of Hsp90's ability to protect citrate synthase from aggregation” value (yeast Hsp90 [8]; 0.1–0.2 mM LA1011, 600 nM Hsp90, 45°C) was “around 50%” and the fractional occupancy (yeast Hsp90 [8]; calculated as [ligand]/[ligand]+Kd, Kd 13 μM, at 0.1–0.2 mM LA1011) was 88–93%. For the same molecule, the binding [9] was “failed to bind”, the Kd (yeast Hsp90^546−709) was 60.6 ± 7.9 µM and the ΔH (yeast Hsp90^546−709; ITC, Yeast 546–709) was -2.603 ± 0.706 kcal/mol. The ΔS (yeast Hsp90^546−709; ITC, Yeast 546–709) was 10.7 cal/mol/Deg, the Kd (yeast Hsp90-P661R) was 80.6 ± 19 µM and the binding (Hsp90^1−560) was “failed to bind”. The “heat shock protein co-induction” value [10] was “co-inducers of Hsp70 and Hsp27” and the Kd (yeast Hsp90-ADP complex) was 66.2 ± 29.7 µM.

With `COC(=O)C1=C(C)N(C)C(CCN2CCOCC2)=C(C(=O)OC)C1c1ccc(C(F)(F)F)cc1` (stereo not drawn) [LA1014] the “effect on ATPase activity of Hsp90” value (yeast Hsp90 [1]; [11]) was “activated the ATPase activity”, the Kd (yeast Hsp90^273−709) was 20.2 ± 3 µM and the ΔH (yeast Hsp90^273−709) was -0.8714 ± 0.145 kcal/mol. The ΔS (yeast Hsp90^273−709) was 18.6 cal/mol/Deg.

With `COC(=O)C1=C(CCN(C)C)N(C)C(CCN(C)C)=C(C(=O)OC)C1c1cc(F)cc(F)c1` [LA1026] the “effect on ATPase activity of Hsp90” value (yeast Hsp90 [1]; [11]) was “activated the ATPase activity”, the Kd (yeast Hsp90^273−709) was 48.8 ± 4.7 µM and the ΔH (yeast Hsp90^273−709) was -1.233 ± 0.21 kcal/mol. It also gave a ΔS (yeast Hsp90^273−709) of 15.7 cal/mol/Deg.
